In US6525001B1, “Substituted pyrimidine and pyridine herbicides” (Mid-American Commercialization Corporation, priority 1997, dated 2003):

Experiments:
Assay type in all cases: in vivo
rape (Brassica napus) = experiment: Test B pre-/postemergence; set-up: key: 0 is no effect; 10 is complete control
How it was run: (§1)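 Scored visually 0 (none) to 10 (complete control) against untreated plants after twelve to sixteen greenhouse days. Test chemicals, formulated in surfactant-containing non-phytotoxic solvent, applied to soil after planting and, separately, onto 1- to 4-leaf (2–18 cm) plants.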

[1] = system: pigweed (Amaranthus retroflexus); experiment: Test B pre-/postemergence; set-up: key: 0 is no effect; 10 is complete control
How it was run: as §1

[2] = system: blackgrass (Alopecurus myosuroides); experiment: Test B pre-/postemergence; set-up: key: 0 is no effect; 10 is complete control; settings: for Blackgrass plant response rating: Preemergence
How it was run: as §1

[3] = system: sugar beet (Beta vulgaris); experiment: Test B pre-/postemergence; set-up: key: 0 is no effect; 10 is complete control
How it was run: as §1

[4] = system: broadleaf signalgrass (Brachiaria decumbens); experiment: Test B pre-/postemergence; set-up: key: 0 is no effect; 10 is complete control; settings: for B. signalgrass plant response rating: Preemergence
How it was run: as §1

[5] = system: velvetleaf (Abutilon theophrasti); experiment: Test B pre-/postemergence; set-up: key: 0 is no effect; 10 is complete control
How it was run: as §1

[6] = system: wheat (Triticum aestivum); experiment: Test B pre-/postemergence; set-up: key: 0 is no effect; 10 is complete control
How it was run: as §1

[7] = system: giant foxtail (Setaria faberii); experiment: Test B pre-/postemergence; set-up: key: 0 is no effect; 10 is complete control
How it was run: as §1

[8] = system: cocklebur (Xanthium strumarium); experiment: Test B pre-/postemergence; set-up: key: 0 is no effect; 10 is complete control; settings: for Plant response rating, Cocklebur: Postemergence; for Cocklebur plant response rating: Preemergence
How it was run: as §1

[9] = system: purple nutsedge (Cyperus rotundus); experiment: Test B pre-/postemergence; set-up: key: 0 is no effect; 10 is complete control
How it was run: as §1

[10] = system: bedstraw (Galium aparine); experiment: Test B pre-/postemergence; set-up: key: 0 is no effect; 10 is complete control; settings: Postemergence
How it was run: as §1

corn (Zea mays) = experiment: Test B pre-/postemergence; set-up: key: 0 is no effect; 10 is complete control; settings: for Corn plant response rating: Preemergence
How it was run: as §1

[11] = system: crabgrass (Digitaria sanguinalis); experiment: Test B pre-/postemergence; set-up: key: 0 is no effect; 10 is complete control; settings: for Crabgrass plant response rating: Preemergence
How it was run: as §1

[12] = system: momingglory (Ipomoea hederacea); experiment: Test B pre-/postemergence; set-up: key: 0 is no effect; 10 is complete control
How it was run: as §1

soybean (Glycine max) = experiment: Test B pre-/postemergence; set-up: key: 0 is no effect; 10 is complete control
How it was run: as §1

wild oat (Avena fatua) = experiment: Test B pre-/postemergence; set-up: key: 0 is no effect; 10 is complete control
How it was run: as §1

[13] = system: smallflower flatsedge (Cyperus difformis); experiment: Test B flood test
How it was run: (§2)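 Flood test on plants grown to the 2-leaf stage; treated plants kept in greenhouse twelve to sixteen days, then visually rated against controls on a 0 (no effect) to 10 (complete control) scale.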

[14] = system: duck salad (Heteranthera limosa); experiment: Test B flood test
How it was run: as §2

[15] = system: bamyardgrass (Echinochloa crus-galli); experiment: Test B flood test
How it was run: as §2

rice (Oryza sativa) = experiment: Test B flood test
How it was run: as §2

[16] = Rate 250 g/ha, Postemergence (so in the source)
[17] = Rate 62 g/ha, Postemergence (flood test)
[18] = Rate 125 g/ha, Postemergence section (flood test species)
[19] = Rate 250 g/ha, Postemergence (flood test species)
[20] = Rate 125 g/ha, Postemergence, flood test

## Cc1cnc(-c2ccc(F)cc2F)nc1Cc1cccc(C(F)(F)F)c1 [Compound 31]
Rape (Brassica napus); Rate 62 g/ha, Postemergence
  Plant response rating, Rape: 8
Rape (Brassica napus); Rate 62 g/ha, Preemergence
  Rape plant response rating: 0
Rape (Brassica napus); Rate 125 g/ha, Postemergence
  Rape plant response rating: 8
Rape (Brassica napus); Rate 125 g/ha, Preemergence
  Rape plant response rating: 0
Rape (Brassica napus); Rate 250 g/ha, Postemergence
  Plant response rating, Rape: 9
Rape (Brassica napus); [16]
  Plant response rating, Rape: 1
[1]; Rate 62 g/ha, Postemergence
  Plant response rating, Redroot pigweed: 8
[1]; Rate 62 g/ha, Preemergence
  Redroot pigweed plant response rating: 1
[1]; Rate 125 g/ha, Postemergence
  Redroot pigweed plant response rating: 9
[1]; Rate 125 g/ha, Preemergence
  Redroot pigweed plant response rating: 2
[1]; Rate 250 g/ha, Postemergence
  Plant response rating, Redroot pigweed: 9
[1]; [16]
  Plant response rating, Redroot pigweed: 3
[2]; Rate 62 g/ha, Postemergence
  Plant response rating, Blackgrass: 2
[2]; Rate 62 g/ha
  Blackgrass plant response rating: 1
[2]; Rate 125 g/ha, Postemergence
  Plant response rating, Blackgrass: 2
[2]; Rate 125 g/ha
  Blackgrass plant response rating: 2
[2]; Rate 250 g/ha, Postemergence
  Plant response rating, Blackgrass: 4
[2]; [16]
  Plant response rating, Blackgrass: 3
[3]; Rate 62 g/ha, Postemergence
  Plant response rating, Sugarbeets: 10
[3]; Rate 62 g/ha, Preemergence
  Sugarbeets plant response rating: 0
[3]; Rate 125 g/ha, Postemergence
  Sugarbeets plant response rating: 10
[3]; Rate 125 g/ha, Preemergence
  Plant response rating, Sugarbeets: 0
[3]; Rate 250 g/ha, Postemergence
  Plant response rating, Sugarbeets: 10
[3]; [16]
  Plant response rating, Sugarbeets: 3
[4]; Rate 62 g/ha, Postemergence
  Plant response rating, B. signalgrass: 3
[4]; Rate 62 g/ha
  B. signalgrass plant response rating: 3
[4]; Rate 125 g/ha, Postemergence
  Plant response rating, B. signalgrass: 3
[4]; Rate 125 g/ha
  B. signalgrass plant response rating: 9
[4]; Rate 250 g/ha, Postemergence
  Plant response rating, B. signalgrass: 5
[4]; Rate 250 g/ha, Postemergence as printed in head r139 (second section for compounds 26-50)
  Plant response rating, B. signalgrass: 9
[5]; Rate 62 g/ha, Postemergence
  Plant response rating, Velvetleaf: 2
[5]; Rate 62 g/ha, Preemergence
  Velvetleaf plant response rating: 0
[5]; Rate 125 g/ha, Postemergence
  Velvetleaf plant response rating: 2
[5]; Rate 125 g/ha, Preemergence
  Plant response rating, Velvetleaf: 0
[5]; Rate 250 g/ha, Postemergence
  Plant response rating, Velvetleaf: 4
[5]; [16]
  Plant response rating, Velvetleaf: 0
[6]; Rate 62 g/ha, Postemergence
  Wheat plant response rating: 1
[6]; Rate 62 g/ha, Preemergence
  Wheat plant response rating: 0
[6]; Rate 125 g/ha, Postemergence
  Wheat plant response rating: 3
[6]; Rate 125 g/ha, Preemergence
  Plant response rating, Wheat: 0
[6]; Rate 250 g/ha, Postemergence
  Plant response rating, Wheat: 4
[6]; [16]
  Plant response rating, Wheat: 0
[7]; Rate 62 g/ha, Postemergence
  Plant response rating, Giant foxtail: 2
[7]; Rate 62 g/ha, Preemergence
  Giant foxtail plant response rating: 2
[7]; Rate 125 g/ha, Postemergence
  Giant foxtail plant response rating: 3
[7]; Rate 125 g/ha, Preemergence
  Giant foxtail plant response rating: 5
[7]; Rate 250 g/ha, Postemergence
  Plant response rating, Giant foxtail: 3
[7]; [16]
  Plant response rating, Giant foxtail: 10
[8]; Rate 62 g/ha
  Plant response rating, Cocklebur: 6
  Cocklebur plant response rating: 0
[8]; Rate 125 g/ha
  Plant response rating, Cocklebur: 6
  Cocklebur plant response rating: 0
[8]; Rate 250 g/ha
  Plant response rating, Cocklebur: 7
[9]; Rate 62 g/ha, Postemergence
  Plant response rating, Nutsedge: 0
[9]; Rate 62 g/ha, Preemergence
  Nutsedge plant response rating: 0
[9]; Rate 125 g/ha, Postemergence
  Nutsedge plant response rating: 0
[9]; Rate 125 g/ha, Preemergence
  Nutsedge plant response rating: 0
[9]; [16]
  Plant response rating, Nutsedge: 0
[10]; Rate 62 g/ha
  Plant response rating, Bedstraw: 4
[10]; Rate 125 g/ha
  Plant response rating, Bedstraw: 6
[10]; Rate 250 g/ha
  Plant response rating, Bedstraw: 6
Corn (Zea mays); Rate 62 g/ha, Postemergence
  Plant response rating, Corn: 2
Corn (Zea mays); Rate 62 g/ha
  Corn plant response rating: 0
Corn (Zea mays); Rate 125 g/ha, Postemergence
  Plant response rating, Corn: 2
Corn (Zea mays); Rate 125 g/ha
  Corn plant response rating: 0
Corn (Zea mays); Rate 250 g/ha, Postemergence
  Plant response rating, Corn: 2
Corn (Zea mays); [16]
  Plant response rating, Corn: 1
[11]; Rate 62 g/ha, Postemergence
  Plant response rating, Crabgrass: 4
[11]; Rate 62 g/ha
  Crabgrass plant response rating: 1
[11]; Rate 125 g/ha, Postemergence
  Plant response rating, Crabgrass: 8
[11]; Rate 125 g/ha
  Crabgrass plant response rating: 4
[11]; Rate 250 g/ha, Postemergence
  Plant response rating, Crabgrass: 9
[11]; [16]
  Plant response rating, Crabgrass: 10
[12]; Rate 62 g/ha, Postemergence
  Plant response rating, Morningglory: 3
[12]; Rate 62 g/ha, Preemergence
  Morningglory plant response rating: 0
[12]; Rate 125 g/ha, Postemergence
  Morningglory plant response rating: 3
[12]; Rate 125 g/ha, Preemergence
  Morningglory plant response rating: 2
[12]; Rate 250 g/ha, Postemergence
  Plant response rating, Morningglory: 4
[12]; [16]
  Plant response rating, Morningglory: 2
Soybean (Glycine max); Rate 62 g/ha, Postemergence
  Plant response rating, Soybean: 4
Soybean (Glycine max); Rate 62 g/ha, Preemergence
  Soybean plant response rating: 0
Soybean (Glycine max); Rate 125 g/ha, Postemergence
  Soybean plant response rating: 4
Soybean (Glycine max); Rate 125 g/ha, Preemergence
  Plant response rating, Soybean: 0
Soybean (Glycine max); Rate 250 g/ha, Postemergence
  Plant response rating, Soybean: 7
Soybean (Glycine max); [16]
  Plant response rating, Soybean: 0
Wild oat (Avena fatua); Rate 62 g/ha, Postemergence
  Wild oats plant response rating: 2
Wild oat (Avena fatua); Rate 62 g/ha, Preemergence
  Wild oats plant response rating: 0
Wild oat (Avena fatua); Rate 125 g/ha, Postemergence
  Wild oats plant response rating: 3
Wild oat (Avena fatua); Rate 125 g/ha, Preemergence
  Plant response rating, Wild oats: 1
Wild oat (Avena fatua); Rate 250 g/ha, Postemergence
  Plant response rating, Wild oats: 4
Wild oat (Avena fatua); [16]
  Plant response rating, Wild oats: 2
[13]; [17]
  Plant response rating, S. Flatsedge: 4
[13]; [18]
  S. Flatsedge plant response rating: 7
[13]; [19]
  Plant response rating, S. Flatsedge: 8
[14]; [17]
  Plant response rating, Ducksalad: 1
[14]; [20]
  Plant response rating, Ducksalad: 2
[14]; [19]
  Plant response rating, Ducksalad: 6
[15]; [17]
  Plant response rating, Barnyardgrass: 2
[15]; [20]
  Plant response rating, Barnyardgrass: 3
[15]; [19]
  Plant response rating, Barnyardgrass: 5
Rice (Oryza sativa); [17]
  Plant response rating, Rice: 1
Rice (Oryza sativa); [18]
  Rice plant response rating: 2
Rice (Oryza sativa); [19]
  Plant response rating, Rice: 3
